Patent US8895069B2, “Drug delivery system using hyaluronic acid-peptide conjugate micelle” (Postech Academy-Industry Foundation, priority 2011, dated 2014)
Ends that are not written are not given here.

Key:
retinal blood vessel = assay: Electron microscopy of retinal blood vessel in diabetic retinopathy; format: in vivo, Sprague Dawley (SD) male rats; details: diabetic retinopathy rats
[1] = Appearance / water solubility in aqueous solution; format: physicochemical; details: PBS, final peptide concentration 1.25 mg/mL
Description: The anti-Flt1 peptide (GGNQWFI) (SEQ ID NO: 3) and the hyaluronic acid-peptide conjugate with a lower peptide content as prepared from Preparation Example 3 were dissolved in 4004, of PBS to have a final peptide concentration of 1.25 mg/mL, respectively. The amount of the anti-Flt1 peptide contained in each solution was measured with a changeable UV transilluminator (DUT-260, Core Bio System, Korea) by using 312 nm of light source. The formation of the hyaluronic acid-peptide micelle in an aqueous solution was confirmed by using a transmission electron microscope (TEM) (Hitachi, Tokyo, Japan). For a TEM analysis, 10 μL of the hyaluronic acid-peptide conjugate solution was dropped onto a 300 mesh copper TEM grid with a carbon film and then was dried. The average particle size was calculated out from the diameters obtained from the images of 30 particles.

[2] = biological target: T1, binding between Flt1-Fc and VEGF165 (Homo sapiens, UniProt P17948); assay: Inhibition of binding between Flt1-Fc and VEGF165 (chemiluminescence ELISA)
T1 construct: purchased R&D Systems
T1 sequence (P17948 with tags, fused parts or gaps isoform P17948-2 limits assumed): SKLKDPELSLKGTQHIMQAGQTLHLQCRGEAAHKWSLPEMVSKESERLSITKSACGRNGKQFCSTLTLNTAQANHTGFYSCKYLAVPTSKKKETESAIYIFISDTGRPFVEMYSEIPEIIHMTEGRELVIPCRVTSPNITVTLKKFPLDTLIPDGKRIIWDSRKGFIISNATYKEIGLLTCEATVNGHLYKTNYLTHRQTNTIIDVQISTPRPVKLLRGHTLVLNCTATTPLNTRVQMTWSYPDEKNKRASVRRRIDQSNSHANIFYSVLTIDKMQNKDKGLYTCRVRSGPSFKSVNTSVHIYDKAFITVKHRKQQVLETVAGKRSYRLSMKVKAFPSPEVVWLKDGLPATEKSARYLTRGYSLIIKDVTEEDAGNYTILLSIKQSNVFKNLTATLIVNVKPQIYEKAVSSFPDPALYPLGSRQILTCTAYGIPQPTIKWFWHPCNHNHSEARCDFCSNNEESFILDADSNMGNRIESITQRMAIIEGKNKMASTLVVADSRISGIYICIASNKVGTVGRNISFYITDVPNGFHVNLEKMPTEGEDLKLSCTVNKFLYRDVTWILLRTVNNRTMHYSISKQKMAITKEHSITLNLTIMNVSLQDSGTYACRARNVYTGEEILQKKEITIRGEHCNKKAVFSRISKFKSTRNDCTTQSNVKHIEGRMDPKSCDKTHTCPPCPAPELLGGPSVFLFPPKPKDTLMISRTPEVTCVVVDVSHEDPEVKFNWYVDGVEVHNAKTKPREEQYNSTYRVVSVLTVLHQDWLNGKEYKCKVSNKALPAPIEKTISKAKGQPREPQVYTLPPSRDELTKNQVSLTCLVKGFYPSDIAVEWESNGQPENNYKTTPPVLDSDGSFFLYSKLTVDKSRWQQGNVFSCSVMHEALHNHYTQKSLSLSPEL
Description: A VEGF165 solution (with a concentration in PBS of 0.5 μg/mL) (R&D System) was put into 96-black well-plate, and reacted overnight at 4° C. to give a VEGF165-coated well. After being washed with PBS, the well was blocked with a blocking buffer (which is a BSA solution with BSA(Sigma-Aldrich) dissolved therein at a concentration of 3 wt % in a PBS buffer solution at pH 7.4) and washed again with PBS (at room temperature for 2 hours). The solutions of the anti-Flt1 peptide (GGNQWFI) (SEQ ID NO: […]) (SEQ ED NO: 3) and 500 ng/mL of Flt1-Fc (R&D systems, Minneapolis, Minn.) in a solution of BSA(Sigma-Aldrich) as dissolved in PBS (pH 7.4) at 1 wt %, or the solution of the hyaluronic acid-peptide conjugate with a lower peptide content of Preparation Example 3 test group (HA-GGNQWFI) (as prepared by conjugating 20 peptides per one HA-TBA molecule) was added to the VEGF165-coated well, and incubated at room temperature for one hour. […] Then, after the well was washed with a PBS comprising 0.05 wt % of Tween 20 three times and washed with a PBS once, the amount of the conjugated Flt1-Fc was measured with BM chemiluminescence ELISA substrate system (Victor 3 luminometer, PerkinElmer, Mass.). […]
The luminescence value of the positive control group without being treated with anti-FR1 peptide was set to be 100% and other data were normalized.

[3] = test system: corneal neovascularization; assay: Corneal neovascularization after silver nitrate cauterization (Experimental Example 8); format: in vivo, Albino Sprague Dawley male rats; details: rat cornea, subconjunctival 20 μL; Avastin 10 mg/ml, peptide and conjugate […] peptide; NV control 90.8±5%
Description: All animal tests including this experiment were conducted in compliance with the guidelines of the Catholic University of Korea and the principles of laboratory animal care; NIH publication No. 85-23 revised in 1985.
The rat was put under anesthesia by an intra-peritoneal injection of a mixed solution of 20 mg/kg of ketamine hydrochloride and 2.5 mg/kg of xylazine hydrochloride. […] In 3 days after the cauterization, subconjunctival administration was conducted with 20 μL of each of 4 sample solutions (a normal control group, NV control (neovascularization control: a control group wherein angiogenesis was made to occur and no drug was treated thereon), a solution comprising Avastin (Roche) dissolved in PBS at a concentration of 10 mg/ml, a solution comprising anti-Flt1 peptide (GGNQWFI) (SEQ ID NO: 3) dissolved in PBS at a concentration of 2.5 mg/ml, and a solution comprising the hyaluronic acid-peptide conjugate with a lower peptide concentration obtained from Preparation Example 3 as dissolved in PBS at a concentration of 2.5 mg/ml based on the content of anti-Flt1 peptide). […] The obtained images were subjected to quantitative analysis with Image J program (Ver. 1.38, National Institute of Health, MD).

lung inflammation = assay: Bronchoalveolar lavage (BAL) cellularity in OVA/LPS asthma model; format: in vivo, BALB/c mice; details: intranasal
Description: As the laboratory mouse, BALB/c mice (female, 6 week old, 5 per each group) were used. Five groups consisted of a normal control group (PBS-PBS: wherein asthma was not induced and the mice were treated with PBS), a negative control group (OVA/LPS10-OVA: wherein asthma was induced by using OVA and LPS, and the mice were treated with PBS only), a hyaluronic acid test group, an anti-Flt1 peptide (GGNQWFI) (SEQ ID NO: 3) test group, and a test group of the hyaluronic acid-peptide conjugate obtained from Preparation Example 3. The dose of the hyaluronic acid-peptide conjugate was changed between 10 […].
First, in order to make a mouse asthma model, each mouse was sensitized by intranasal administration of 75 μg of ovalbumin (OVA) (Calbiochem, La Jolla, Calif.) and 10 μg of lipopolysaccharide (LPS) (Calbiochem, La Jolla, Calif.) on 0 day, the first day, the second day, and the 7th day. Then, OVA (50 ug/head), hyaluronic acid (500 μg/head), anti-Flt1 peptide (GGNQWFI) (SEQ ID NO: 3) (10, 30, 100, 300, 1000 μg/head), and the hyaluronic acid-peptide conjugate with a low peptide content prepared from Preparation Example 3 ([…], based on the peptide content) were intranasally administered, respectively, after 14 days, 15 days, 21 days, 22 days to challenge. […]

[4] = test system: vascular hyperpermeability due to diabetic retinopathy; assay: Vascular hyperpermeability due to diabetic retinopathy, genistein-loaded micelle (Experimental Example 14); format: in vivo, Sprague Dawley (SD) male rats; details: normal = 1, negative control 2.54±0.20; Avastin 10 mg/ml; micelle 3.2 mg/ml peptide; four weeks after streptozotocin
Description: First, each rat was injected intraperitonially with 60 mg/kg of streptozotocin dissolved in 10 mM citrate buffer at pH 4.5 in order for diabetes to be induced. In three days after the injection of streptozotocin, the rat was determined to develop diabetes when its serum concentration of glucose was at least 300 mg/dL. In a week after the injection of streptozotocin, 10 μL of each sample solution was injected into the vitroeus body.

For GGNQWFI [anti-Flt1 peptide, GGNQWFI], the “structure of the retinal blood vessel (electron microscope)” value (retinal blood vessel) was “the blood vessel had a rounded shape although the endothelial cell layer was thin”, the “appearance in the aqueous solution (water solubility)” value [1] was “became turbid” and the “inhibition of the bonding between VEGF165 and Flt1-Fc” value ([2]; at 200 nM) was “failed to inhibit”. The “average ratio of the neovascular area” value [3] was 27±5.7%.

With “HA-GGNQWFI: hyaluronic acid (MW 100 kDa) conjugated with GGNQWFI, 20 peptides per one molecule of HA-TBA (also: conjugated to hyaluronic acid, about 20 peptides per HA)” the “bronchoalveolar lavage (BAL) cellularity” value (lung inflammation; 1000 μg/head) was “less than half of the cellularity in the negative control group”, the “bronchoalveolar lavage (BAL) cellularity, dose dependence” value (lung inflammation; 10-1000 per head based on peptide content) was “sharply decreased and was found to be dose-dependent” and the “average intensity of the fluorescence of retina relative to normal group (1)” value [4] was 1.58±0.17. The “appearance in the aqueous solution (water solubility)” value [1] was “became clear”, the “inhibition of the bonding between VEGF165 and Flt1-Fc, up to” value ([2]; dose-dependent, 20-20000 nM peptide, positive control set to 100%) was “about 32%” and the “average ratio of the neovascular area” value [3] was 17.4±5.6%.
